ChEMBL document CHEMBL4831477, “Structure-Enabled Discovery of Novel Macrocyclic Inhibitors Targeting Glutaminase 1 Allosteric Binding Site” (J Med Chem, 2021)
Calls of active or inactive are those of the source. No cut-off for these calls is given here.

Tests used:
MDA-MB-436 = test: Antiproliferative activity against human MDA-MB-436 cells assessed as reduction in cell viability incubated for 72 hrs by MTT assay; type: functional, cell-based; conditions: MDA-MB-436, 72 h
[1] = Acute toxicity in BALB/c nude mouse assessed as lung damage at 200 mg/kg, po administered twice daily for 4 weeks by H and E staining based optical microscopic analysis; type: organism-based; conditions: in vivo, 672 h
[2] = AUC(0 to t) in Sprague-Dawley rat at 200 mg/kg, po measured upto 72 hrs by LC-MS/MS analysis; type: ADME, organism-based; set-up: route oral, dose 200 mg/kg, time <=72; conditions: in vivo
[3] = target: T1, Glutaminase kidney isoform, mitochondrial (Mus musculus) (UniProt D3Z7P3); test: In vivo inhibition of GLS1 in BALB/c mouse xenografted with human HCT-116 cells assessed as increase in glutamine level at 200 mg/kg, po; type: functional, organism-based
T1 sequence (whole entry): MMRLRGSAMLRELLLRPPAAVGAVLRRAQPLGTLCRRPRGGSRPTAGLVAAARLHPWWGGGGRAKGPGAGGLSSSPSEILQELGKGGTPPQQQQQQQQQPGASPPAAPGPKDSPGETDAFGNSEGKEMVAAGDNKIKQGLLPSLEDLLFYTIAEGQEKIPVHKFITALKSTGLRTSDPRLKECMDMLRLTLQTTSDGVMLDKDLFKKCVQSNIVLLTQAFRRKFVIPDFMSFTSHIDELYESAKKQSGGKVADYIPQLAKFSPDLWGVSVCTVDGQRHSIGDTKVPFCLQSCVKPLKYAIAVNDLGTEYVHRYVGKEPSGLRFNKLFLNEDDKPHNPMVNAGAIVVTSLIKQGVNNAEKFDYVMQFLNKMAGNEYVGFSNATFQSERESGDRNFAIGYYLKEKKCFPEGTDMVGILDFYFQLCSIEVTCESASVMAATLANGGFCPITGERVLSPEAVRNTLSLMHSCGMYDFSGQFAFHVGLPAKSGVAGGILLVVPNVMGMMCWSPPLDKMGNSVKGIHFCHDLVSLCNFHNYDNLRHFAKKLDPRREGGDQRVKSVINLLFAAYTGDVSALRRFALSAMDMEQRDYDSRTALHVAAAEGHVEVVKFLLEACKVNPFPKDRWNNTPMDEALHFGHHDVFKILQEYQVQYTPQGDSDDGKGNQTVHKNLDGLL

[4] = Free plasma protein in mouse; type: ADME, cell-free
[5] = Acute toxicity in BALB/c nude mouse assessed as kidney damage at 200 mg/kg, po administered twice daily for 4 weeks by H and E staining based optical microscopic analysis; type: organism-based; conditions: in vivo, 672 h
HCT-116 [6] = test: Antitumor activity against human HCT-116 cells xenografted in BALB/c nude mouse assessed as large areas of necrosis at 200 mg/kg, po administered twice daily measured after 28 days by H and E staining based optical microscopic analysis; type: functional, organism-based; conditions: time 28.0 day
[7] = target: T1, Glutaminase kidney isoform, mitochondrial (Mus musculus); test: In vivo inhibition of GLS1 in BALB/c mouse xenografted with human HCT-116 cells assessed as reduction in glutathione level at 200 mg/kg, po; type: functional, organism-based
HCT-116 [8] = test: Antiproliferative activity against human HCT116 cells assessed as reduction in cell viability incubated for 72 hrs by MTT assay; type: functional, cell-based; conditions: HCT-116, 72 h
[9] = Metabolic stability in human liver microsomes assessed as half life at 10 uM preincubated for 5 mins followed by NADPH addition by LC-MS/MS analysis; type: ADME, Microsome
[10] = Half life in Sprague-Dawley rat at 5 mg/kg, iv measured upto 72 hrs by LC-MS/MS analysis; type: ADME, organism-based; conditions: in vivo
[11] = Metabolic stability in mouse liver microsomes assessed as half life at 10 uM preincubated for 5 mins followed by NADPH addition by LC-MS/MS analysis; type: ADME, Microsome
HCT-116 [12] = test: Antitumor activity against human HCT-116 cells xenografted in BALB/c nude mouse assessed as karyorrhexis at 200 mg/kg, po administered twice daily measured after 28 days by H and E staining based optical microscopic method; type: functional, organism-based; conditions: time 28.0 day
[13] = target: T1, Glutaminase kidney isoform, mitochondrial (Mus musculus); test: In vivo inhibition of GLS1 in BALB/c mouse xenografted with human HCT-116 cells assessed as reduction in aspartate level at 200 mg/kg, po; type: functional, organism-based
[14] = Apparent volume of distribution in Sprague-Dawley rat at 5 mg/kg, iv measured upto 72 hrs by LC-MS/MS analysis; type: ADME, organism-based; conditions: in vivo, read-out: Vz
[15] = Clearance in Sprague-Dawley rat at 200 mg/kg, po measured upto 72 hrs by LC-MS/MS analysis; type: ADME, organism-based; conditions: in vivo, 200 mg/kg, 72 h
[16] = Metabolic stability in human plasma assessed as compound remaining after 2 hrs by LC-MS/MS analysis; type: ADME, cell-free; conditions: read-out: Stability
[17] = Clearance in Sprague-Dawley rat at 5 mg/kg, iv measured upto 72 hrs by LC-MS/MS analysis; type: ADME, organism-based; conditions: Sprague-Dawley, in vivo

## O=C1Cc2cccc(c2)OCC/C=C/CCOc2cccc(c2)CC(=O)Nc2nnc(s2)CCCCc2ccc(nn2)N1
MDA-MB-436
  IC50: 340 nM
[1]
  Activity: Non-Toxic
[2]
  AUC(0-t) at 72 h: 5920 ng·h/mL
[3]
  inhibition: Active
[4]
  fraction unbound: 0.129
[5]
  Activity: Non-Toxic
HCT-116 [6]
  Activity: Active
[7]
  inhibition: Active
HCT-116 [8]
  IC50: 80 nM
[9]
  half-life at 10 µM: 2.72 h
[10]
  half-life: 6.3 h
[11]
  half-life at 10 µM: 1.7 h
HCT-116 [12]
  Activity: Active
[13]
  inhibition: Active
[14]
  Vd: 19.7 L/kg
[15]
  CL: 61.7 mL/min/kg
[16]
  remaining at 2 h: 92%
[17]
  clearance: 53.3 mL/min/kg
